Data as given in patent US20220061311A1, “COMPOSITIONS AND METHODS FOR REDUCING CRYOPRESERVATION TOXICITY” (The Regents of the University of Colorado, a body, priority 2018, published 2022).
Several values for one entry are separate records, joined by “and”; a condition that tells them apart may be missing. Equal entries are not always repeated. Where two headings read alike, the source gives them in different places.

How the values were obtained:
[1] = tested on: Mouse embryonic stem cells (ESCs); test: Afatinib pre-treatment of mouse embryonic stem cells before M22 toxicity challenge; format: cell-based
Procedure: Mouse embryonic stem cells (ESCs) were pre-treated with Afatinib in concentrations of 1 nM, 7.5 nM, 15 nM, 30 nM, and 75 nM. The ESCs were then subjected to various concentrations of M22, including a lethal challenge of 6% in normal culture media.

ERB3/4 = settings: cited from earlier work
TJ1060 worms [2] = test: Worms on 10% M22 +/- Afatinib in liquid survival medium; format: in vivo, C. elegans; parameters: Mean (survival): unit not given here
Procedure: FIG. 6 is a histogram. Sterile young adult worms (TJ1060) were put into liquid survival medium with 10% M22 and varying concentrations of Afatinib and followed until all were dead. Data from 4 replicate blinded experiments are shown.
Young adult worms from TJ1060 were grown on agar plates at 25° C. with varying concentrations of Afatinib and put into liquid survival medium with 10% M22+/−Afatinib at 20° C. They were followed until all were dead. Data from 4 replicate experiments are shown; experiments were blinded.

TJ1060 worms [3] = test: Survival on Afatinib on agar plates; format: in vivo, C. elegans; parameters: Mean (survival): unit not given here; settings: for Mean (survival) / survival (vs no Afatinib control): agar plates
Procedure: Eggs from TJ1060 were put onto NGM agar plates with varying concentrations of Afatinib at 25° C. On day 3, sterile staged young adult worms were moved to agar plates with Afatinib at 20° C. and followed until all were dead.

HSBP1 protein = settings: Arai et al., Chem. Sci., 2016; cited from earlier work
MYH9 protein = MYH9 protein (Homo sapiens, UniProt P35579); settings: Chiu et al., Molecular Oncology 6, 2012; cited from earlier work
Chain of MYH9 protein (P35579 whole entry, species assumed): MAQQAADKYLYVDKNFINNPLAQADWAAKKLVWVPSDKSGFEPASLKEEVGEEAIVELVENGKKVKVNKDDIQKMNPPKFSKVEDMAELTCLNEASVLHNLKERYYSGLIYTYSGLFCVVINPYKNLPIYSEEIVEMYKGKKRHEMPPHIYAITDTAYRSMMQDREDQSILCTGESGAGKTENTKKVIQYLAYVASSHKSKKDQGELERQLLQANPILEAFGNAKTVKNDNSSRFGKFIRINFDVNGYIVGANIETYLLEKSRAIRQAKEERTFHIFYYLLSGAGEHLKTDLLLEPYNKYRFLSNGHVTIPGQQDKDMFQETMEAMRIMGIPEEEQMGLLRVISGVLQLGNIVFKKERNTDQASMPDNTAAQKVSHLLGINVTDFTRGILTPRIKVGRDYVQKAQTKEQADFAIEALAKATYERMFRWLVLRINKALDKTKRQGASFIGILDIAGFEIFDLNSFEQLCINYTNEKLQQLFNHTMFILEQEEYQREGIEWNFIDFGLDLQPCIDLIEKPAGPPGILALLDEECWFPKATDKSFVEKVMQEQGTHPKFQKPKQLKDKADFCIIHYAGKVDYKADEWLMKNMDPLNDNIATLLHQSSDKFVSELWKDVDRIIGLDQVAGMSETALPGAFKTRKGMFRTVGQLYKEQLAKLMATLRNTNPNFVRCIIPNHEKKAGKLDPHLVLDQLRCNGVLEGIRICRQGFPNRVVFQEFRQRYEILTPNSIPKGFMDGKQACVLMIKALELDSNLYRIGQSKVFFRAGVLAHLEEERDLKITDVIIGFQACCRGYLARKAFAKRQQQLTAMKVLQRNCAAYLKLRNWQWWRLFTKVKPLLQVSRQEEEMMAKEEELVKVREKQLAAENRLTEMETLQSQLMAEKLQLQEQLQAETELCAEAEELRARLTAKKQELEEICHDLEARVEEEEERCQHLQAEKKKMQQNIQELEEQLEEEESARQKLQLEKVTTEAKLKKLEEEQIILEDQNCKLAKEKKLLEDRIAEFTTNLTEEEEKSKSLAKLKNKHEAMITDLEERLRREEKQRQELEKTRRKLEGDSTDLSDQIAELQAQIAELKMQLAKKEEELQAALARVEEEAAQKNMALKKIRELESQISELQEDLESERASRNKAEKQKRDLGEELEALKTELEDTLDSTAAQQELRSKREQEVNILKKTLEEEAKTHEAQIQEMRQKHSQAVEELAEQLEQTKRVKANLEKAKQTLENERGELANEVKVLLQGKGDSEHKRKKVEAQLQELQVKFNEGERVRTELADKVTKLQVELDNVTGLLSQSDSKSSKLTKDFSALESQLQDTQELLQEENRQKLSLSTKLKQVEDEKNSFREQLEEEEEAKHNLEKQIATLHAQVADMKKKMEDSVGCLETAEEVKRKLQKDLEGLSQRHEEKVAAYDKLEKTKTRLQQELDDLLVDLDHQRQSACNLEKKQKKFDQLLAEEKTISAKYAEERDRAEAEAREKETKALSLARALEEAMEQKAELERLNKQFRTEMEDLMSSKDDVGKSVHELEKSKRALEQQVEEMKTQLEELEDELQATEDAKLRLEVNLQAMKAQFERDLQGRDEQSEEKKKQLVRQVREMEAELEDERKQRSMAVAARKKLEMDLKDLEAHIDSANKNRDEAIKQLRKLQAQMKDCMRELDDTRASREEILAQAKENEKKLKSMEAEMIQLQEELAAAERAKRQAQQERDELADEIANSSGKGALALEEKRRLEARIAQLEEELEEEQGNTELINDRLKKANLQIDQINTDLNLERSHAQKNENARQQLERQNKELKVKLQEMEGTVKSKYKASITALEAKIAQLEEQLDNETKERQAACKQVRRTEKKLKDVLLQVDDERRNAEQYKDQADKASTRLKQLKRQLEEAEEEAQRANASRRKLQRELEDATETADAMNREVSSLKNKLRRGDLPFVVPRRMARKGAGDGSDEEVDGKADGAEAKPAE

[4] = 10% M22 + Afatinib 10 nM, summary of 4 experiments
[5] = 10% M22 + Afatinib 100 nM, summary of 4 experiments
[6] = 10% M22 + Afatinib 1000 nM, summary of 4 experiments

**Q.** For `CN(C)C/C=C/C(=O)Nc1cc2c(Nc3ccc(F)c(Cl)c3)ncnc2cc1O[C@H]1CCOC1` [Afatinib], which “resistance to M22 toxicity” value ([1]; ESCs pre-treated with Afatinib 1-75 nM, lower M22 concentrations (FIG. 1)) is on record?
**A.** The value was “increased resistance to M22 toxicity”.

**Q.** And the “survival of otherwise lethal M22 challenge” value ([1]; ESCs pre-treated with Afatinib, 6% M22 in normal culture media (FIG. 1))?
**A.** Its value is “survived an otherwise lethal M22 challenge”.

**Q.** What about the “survival of cells after cryopreservative toxicity challenge with M22 (FIG. 1)” value ([1]; cells treated with Afatinib prior to M22 challenge) of the same molecule?
**A.** The value was “increased survival”.

**Q.** And the IC50 (ERB3/4; read-out: IC50)?
**A.** Its IC50 is roughly 1 nM.

**Q.** What about the IC50 (ERB3/4; read-out: IC50 DOSE) of the same molecule?
**A.** Its IC50 is 1 nM.

**Q.** And the “Mean (survival)” value (TJ1060 worms [2]; 10% M22 + Afatinib 10 nM, liquid, 20° C., single experiments)?
**A.** Its value is 12.4 and 12.3 and 14.6 and 10.4.

**Q.** What about the “resistance (vs no Afatinib control)” value (TJ1060 worms [2]; 10% M22 + Afatinib 10 nM, single experiments) of the same molecule?
**A.** The value was “ns and less”.

**Q.** What about the “Mean (survival)” value (TJ1060 worms [2]; [4]) of the same molecule?
**A.** The value was 12.5.

**Q.** And the “resistance (vs no Afatinib control)” value (TJ1060 worms [2]; [4])?
**A.** The value was “ns”.

**Q.** What about the “Mean (survival)” value (TJ1060 worms [2]; 10% M22 + Afatinib 100 nM, liquid, 20° C., single experiments) of the same molecule?
**A.** Its value is 13.5 and 13.2 and 15.3 and 11.3.

**Q.** What about the “resistance (vs no Afatinib control)” value (TJ1060 worms [2]; 10% M22 + Afatinib 100 nM, single experiments) of the same molecule?
**A.** The value was “more and ns”.

**Q.** What about the “Mean (survival)” value (TJ1060 worms [2]; [5]) of the same molecule?
**A.** The value was 13.4.

**Q.** And the “resistance (vs no Afatinib control)” value (TJ1060 worms [2]; [5])?
**A.** The value was “more”.

**Q.** What about the “Mean (survival)” value (TJ1060 worms [2]; 10% M22 + Afatinib 1000 nM, liquid, 20° C., single experiments) of the same molecule?
**A.** The value was 13.2 and 13.0 and 15.6 and 10.3.

**Q.** And the “resistance (vs no Afatinib control)” value (TJ1060 worms [2]; 10% M22 + Afatinib 1000 nM, single experiments)?
**A.** Its value is “ns and more”.

**Q.** What about the “Mean (survival)” value (TJ1060 worms [2]; [6]) of the same molecule?
**A.** The value was 13.0.

**Q.** And the “resistance (vs no Afatinib control)” value (TJ1060 worms [2]; [6])?
**A.** The value was “ns”.

**Q.** And the “protection of worms in 10% M22” value (TJ1060 worms [2]; Afatinib 10 or 1000 nm)?
**A.** Its value is “not”.

**Q.** And the “survival in 10% M22 compared with control of no afatinib (FIG. 6)” value (TJ1060 worms [2]; Afatinib at 100 nM, 4 replicate blinded experiments, p<0.001)?
**A.** The value was “significantly better than control of no afatinib”.

**Q.** And the “protection of worms in 10% M22” value (TJ1060 worms [2]; Afatinib concentration of 100 nm)?
**A.** Its value is “protects worms in 10% M22”.

**Q.** What about the “Mean (survival)” value (TJ1060 worms [3]; Afatinib 10 nM, no M22, single experiments) of the same molecule?
**A.** The value was 20.5 and 19.7 and 19.1 and 22.1.

**Q.** And the “survival (vs no Afatinib control)” value (TJ1060 worms [3]; Afatinib 10 nM, single experiments)?
**A.** The value was “less and ns”.

**Q.** And the “Mean (survival)” value (TJ1060 worms [3]; Afatinib 10 nM, summary)?
**A.** Its value is 20.3.

**Q.** What about the “survival (vs no Afatinib control)” value (TJ1060 worms [3]; Afatinib 10 nM, summary) of the same molecule?
**A.** The value was “ns”.

**Q.** What about the “Mean (survival)” value (TJ1060 worms [3]; Afatinib 20 nM, no M22, single experiment) of the same molecule?
**A.** Its value is 21.1.

**Q.** And the “survival (vs no Afatinib control)” value (TJ1060 worms [3]; Afatinib 20 nM, single experiment)?
**A.** Its value is “ns”.

**Q.** What about the “Mean (survival)” value (TJ1060 worms [3]; Afatinib 100 nM, no M22, single experiments) of the same molecule?
**A.** Its value is 19.4 and 21.1 and 19.8 and 21.8.

**Q.** And the “survival (vs no Afatinib control)” value (TJ1060 worms [3]; Afatinib 100 nM, single experiments)?
**A.** The value was “less and more and ns”.

**Q.** What about the “Mean (survival)” value (TJ1060 worms [3]; Afatinib 100 nM, summary) of the same molecule?
**A.** The value was 20.4.

**Q.** And the “survival (vs no Afatinib control)” value (TJ1060 worms [3]; Afatinib 100 nM, summary)?
**A.** The value was “ns”.

**Q.** What about the “Mean (survival)” value (TJ1060 worms [3]; Afatinib 1000 nM, no M22, single experiments) of the same molecule?
**A.** The value was 20.8 and 21.7 and 19.4 and 20.0.

**Q.** What about the “survival (vs no Afatinib control)” value (TJ1060 worms [3]; Afatinib 1000 nM, single experiments) of the same molecule?
**A.** Its value is “ns and more and less”.

**Q.** What about the “Mean (survival)” value (TJ1060 worms [3]; Afatinib 1000 nM, summary) of the same molecule?
**A.** The value was 20.6.

**Q.** What about the “survival (vs no Afatinib control)” value (TJ1060 worms [3]; Afatinib 1000 nM, summary) of the same molecule?
**A.** Its value is “less”.

**Q.** What about the longevity effect (TJ1060 worms [3]; worms, Afatinib without M22) of the same molecule?
**A.** The longevity effect was “did not have a longevity effect”.

**Q.** With `COc1ccc(-c2cc(=O)c3c(O[C@@H]4O[C@H](CO[C@@H]5OC[C@@H](O)[C@H](O)[C@H]5O)[C@@H](O)[C@H](O)[C@H]4O)cc(OC)cc3o2)cc1` [Agalloside] as the molecule, how does the “inhibition of HSBP1 protein” value (HSBP1 protein) read?
**A.** The value was “Agalloside inhibits the HSBP1”.

**Q.** Which “inhibition of MYH9 protein” value (MYH9 protein) does the source give for `Cc1ccc2c(c1)C(=O)C1(O)CCN(c3ccccc3)C1=N2` (stereo not shown) [Blebbistatin] here?
**A.** The value was “Blebbistatin inhibits the MYH9”.
